Molecular target: BCL6 (Homo sapiens (Human), UniProt P41182)
Assay: Immunofluorescence high content imaging of BCL6 degradation in T47D cells
Format: cell-based
Conditions: T47D cells
How it was run: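 Seed T47D in RPMI1640-10% FBS to reach ~70-90% confluence at endpoint; add degrader next day (11-point 3-fold series, top 0.1 or 1 μM final) for 3 days. Then fix, permeabilize, stain BCL6 with nuclear Hoechst, and image.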

Dmax | IC50 | SMILES
< 50% | < 10 nM | CCOc1cc(N2CCC(CN3CCN(c4ncc(Cl)c(Nc5ccc6c(c5)cc(OCC(=O)NC)c(=O)n6C)n4)CC3)CC2)ccc1C(=O)NC1CCC(=O)NC1=O (stereo not shown) [compound 344, 4-[4-({4-[5-chloro-4-({1-methyl-3-[(methylcarbamoyl)methoxy]-2-oxo-1,2-dihydroquinolin-6-yl}amino)pyrimidin-2-yl]piperazin-1-yl}methyl)piperidin-1-yl]-N-(2,6-dioxopiperidin-3-yl)-2-ethoxybenzamide]
 | ≥ 100 nM | CCCOc1cc(N2CCC(CN3CCN(c4ncc(Cl)c(Nc5ccc6c(c5)cc(OCC(=O)NC)c(=O)n6C)n4)CC3)CC2)ccc1C(=O)NC1CCC(=O)NC1=O (stereo not shown) [compound 345, 4-[4-({4-[5-chloro-4-({1-methyl-3-[(methylcarbamoyl)methoxy]-2-oxo-1,2-dihydroquinolin-6-yl}amino)pyrimidin-2-yl]piperazin-1-yl}methyl)piperidin-1-yl]-N-(2,6-dioxopiperidin-3-yl)-2-propoxybenzamide]
50 to 70% | < 10 nM | CNC(=O)COc1cc2cc(Nc3nc(N4CCC(CCN5CCN(c6ccc7c(c6)C(=O)N(C6CCC(=O)NC6=O)C7=O)CC5)CC4)ncc3Cl)ccc2n(C)c1=O (stereo not shown) [compound 353, 2-{[6-({5-chloro-2-[4-(2-(4-[2-(2,6-dioxopiperidin-3-yl)-1,3-dioxo-2,3-dihydro-1H-isoindol-5-yl]piperazin-1-yl}ethyl)piperidin-1-yl]pyrimidin-4-yl}amino)-1-methyl-2-oxo-1,2-dihydroquinolin-3-yl]oxy}-N-methylacetamide]
< 50% | 50 to 100 nM | CCn1c(=O)c(OCC(=O)NC)cc2cc(Nc3nc(N4CCN([C@@H]5C[C@@H](COc6ccc7c(c6)C(=O)N(C6CCC(=O)NC6=O)C7=O)N(C)C5)CC4)ncc3Cl)ccc21 (stereo partly drawn) [compound 357, 2-({6-[(5-chloro-2-{4-[(3R,5S)-5-({[2-(2,6-dioxopiperidin-3-yl)-1,3-dioxo-2,3-dihydro-1H-isoindol-5-yl]oxy}methyl)-1-methylpyrrolidin-3-yl]piperazin-1-yl}pyrimidin-4-yl)amino]-1-ethyl-2-oxo-1,2-dihydroquinolin-3-yl}oxy)-N-methylacetamide]
 | ≥ 100 nM | CNC(=O)COc1cc2cc(Nc3nc(N4CCN(CC5CCN(c6ccc(C(=O)NC7CCC(=O)NC7=O)c(OC(C)C)c6)CC5)CC4)ncc3Cl)ccc2n(C)c1=O (stereo not shown) [compound 358, 4-[4-({4-[5-chloro-4-({1-methyl-3-[(methylcarbamoyl)methoxy]-2-oxo-1,2-dihydroquinolin-6-yl}amino)pyrimidin-2-yl]piperazin-1-yl}methyl)piperidin-1-yl]-N-(2,6-dioxopiperidin-3-yl)-2-(propan-2-yloxy)benzamide]
50 to 70% | < 10 nM | CNC(=O)COc1cc2cc(Nc3nc(N4CCC(OC5CC6(C5)CN(c5ccc7c(c5)C(=O)N(C5CCC(=O)NC5=O)C7=O)C6)CC4)ncc3Cl)ccc2n(C(C)C)c1=O (stereo not shown) [compound 362, 2-{[6-({5-chloro-2-[4-({2-[2-(2,6-dioxopiperidin-3-yl)-1,3-dioxo-2,3-dihydro-1H-isoindol-5-yl]-2-azaspiro[3.3]heptan-6-yl}oxy)piperidin-1-yl]pyrimidin-4-yl}amino)-2-oxo-1-(propan-2-yl)-1,2-dihydroquinolin-3-yl]oxy}-N-methylacetamide]

The next lines start with the molecule.

SMILES | Dmax | IC50
CNC(=O)COc1cc2cc(Nc3nc(N4C[C@@H](C)N(CC5CCN(c6ccc(C(=O)NC7CCC(=O)NC7=O)c(OC)c6)CC5)[C@@H](C)C4)ncc3Cl)ccc2n(C)c1=O (stereo partly drawn) [compound 346, 4-(4-{[(2R,6S)-4-[5-chloro-4-({1-methyl-3-[(methylcarbamoyl)methoxy]-2-oxo-1,2-dihydroquinolin-6-yl}amino)pyrimidin-2-yl]-2,6-dimethylpiperazin-1-yl]methyl}piperidin-1-yl)-N-(2,6-dioxopiperidin-3-yl)-2-methoxybenzamide] | 50 to 70% | < 10 nM
CNC(=O)COc1cc2cc(Nc3nc(N4CCC(CN5[C@H](C)CN(c6ccc(C(=O)NC7CCC(=O)NC7=O)c(OC)c6)C[C@@H]5C)CC4)ncc3Cl)ccc2n(C)c1=O (stereo partly drawn) [compound 347, 4-[(3R,5S)-4-({1-[5-chloro-4-({1-methyl-3-[(methylcarbamoyl)methoxy]-2-oxo-1,2-dihydroquinolin-6-yl}amino)pyrimidin-2-yl]piperidin-4-yl}methyl)-3,5-dimethylpiperazin-1-yl]-N-(2,6-dioxopiperidin-3-yl)-2-methoxybenzamide] | 50 to 70% | < 10 nM
CNC(=O)COc1cc2cc(Nc3nc(N4CCO[C@H](COc5ccc(C(=O)NC6CCC(=O)NC6=O)cc5)C4)ncc3Cl)ccc2n(C(C)C)c1=O (stereo partly drawn) [compound 348, 4-{[(2S)-4-[5-chloro-4-({3-[(methylcarbamoyl)methoxy]-2-oxo-1-(propan-2-yl)-1,2-dihydroquinolin-6-yl}amino)pyrimidin-2-yl]morpholin-2-yl]methoxy}-N-(2,6-dioxopiperidin-3-yl)benzamide] | < 50% | 10 to 50 nM
CNC(=O)COc1cc2cc(Nc3nc(N4CCO[C@H](COc5ccc(C(=O)NC6CCC(=O)NC6=O)nc5)C4)ncc3Cl)ccc2n(C(C)C)c1=O (stereo partly drawn) [compound 349, 5-{[(2S)-4-[5-chloro-4-({3-[(methylcarbamoyl)methoxy]-2-oxo-1-(propan-2-yl)-1,2-dihydroquinolin-6-yl}amino)pyrimidin-2-yl]morpholin-2-yl]methoxy}-N-(2,6-dioxopiperidin-3-yl)pyridine-2-carboxamide] | < 50% | ≥ 100 nM
CNC(=O)COc1cc2cc(Nc3nc(N4CCO[C@H](COc5ccc(C(=O)NC6CCC(=O)NC6=O)c(F)c5)C4)ncc3Cl)ccc2n(C(C)C)c1=O (stereo partly drawn) [compound 350, 4-{[(2S)-4-[5-chloro-4-({3-[(methylcarbamoyl)methoxy]-2-oxo-1-(propan-2-yl)-1,2-dihydroquinolin-6-yl}amino)pyrimidin-2-yl]morpholin-2-yl]methoxy}-N-(2,6-dioxopiperidin-3-yl)-2-fluorobenzamide] | < 50% | < 10 nM
CNC(=O)COc1cc2cc(Nc3nc(N4CCO[C@H](COc5ccc(C(=O)NC6CCC(=O)NC6=O)c(OC)c5)C4)ncc3Cl)ccc2n(C(C)C)c1=O (stereo partly drawn) [compound 351, 4-{[(2S)-4-[5-chloro-4-({3-[(methylcarbamoyl)methoxy]-2-oxo-1-(propan-2-yl)-1,2-dihydroquinolin-6-yl}amino)pyrimidin-2-yl]morpholin-2-yl]methoxy}-N-(2,6-dioxopiperidin-3-yl)-2-methoxybenzamide] | < 50% | 10 to 50 nM
CNC(=O)COc1cc2cc(Nc3nc(N4CCN(CC5CCN(c6cc(F)c(C(=O)NC7CCC(=O)NC7=O)c(OC)c6)CC5)CC4)ncc3Cl)ccc2n(C)c1=O (stereo not shown) [compound 354, 4-[4-({4-[5-chloro-4-({1-methyl-3-[(methylcarbamoyl)methoxy]-2-oxo-1,2-dihydroquinolin-6-yl}amino)pyrimidin-2-yl]piperazin-1-yl}methyl)piperidin-1-yl]-N-(2,6-dioxopiperidin-3-yl)-2-fluoro-6-methoxybenzamide] | 50 to 70% | < 10 nM
CNC(=O)COc1cc2cc(Nc3nc(N4C[C@@H](C)N(CC5CCN(c6cccc(C(=O)NC7CCC(=O)NC7=O)c6F)CC5)[C@@H](C)C4)ncc3Cl)ccc2n(C)c1=O (stereo partly drawn) [compound 355, 3-(4-{[(2R,6S)-4-[5-chloro-4-({1-methyl-3-[(methylcarbamoyl)methoxy]-2-oxo-1,2-dihydroquinolin-6-yl}amino)pyrimidin-2-yl]-2,6-dimethylpiperazin-1-yl]methyl}piperidin-1-yl)-N-(2,6-dioxopiperidin-3-yl)-2-fluorobenzamide] | 50 to 70% | 50 to 100 nM
CNC(=O)COc1cc2cc(Nc3nc(N4CCN(C(C)(C)C5CCN(c6cc(OC)cc(C(=O)NC7CCC(=O)NC7=O)c6F)CC5)CC4)ncc3Cl)ccc2n(C)c1=O (stereo not shown) [compound 356, 3-[4-(2-{4-[5-chloro-4-({1-methyl-3-[(methylcarbamoyl)methoxy]-2-oxo-1,2-dihydroquinolin-6-yl}amino)pyrimidin-2-yl]piperazin-1-yl}propan-2-yl)piperidin-1-yl]-N-(2,6-dioxopiperidin-3-yl)-2-fluoro-5-methoxybenzamide] | ≥ 70% | < 10 nM
CNC(=O)COc1cc2cc(Nc3nc(N4CCN(CC5CCN(c6cnc(C(=O)NC7CCC(=O)NC7=O)c(OC)c6)CC5)CC4)ncc3Cl)ccc2n(C)c1=O (stereo not shown) [compound 359, 5-[4-({4-[5-chloro-4-({1-methyl-3-[(methylcarbamoyl)methoxy]-2-oxo-1,2-dihydroquinolin-6-yl}amino)pyrimidin-2-yl]piperazin-1-yl}methyl)piperidin-1-yl]-N-(2,6-dioxopiperidin-3-yl)-3-methoxypyridine-2-carboxamide] | 50 to 70% | 10 to 50 nM
CNC(=O)COc1cc2cc(Nc3nc(N4CCC(CN5CCC(c6nc(C(=O)NC7CCC(=O)NC7=O)cs6)CC5)CC4)ncc3Cl)ccc2n(C)c1=O (stereo not shown) [compound 360, 2-[1-({1-[5-chloro-4-({1-methyl-3-[(methylcarbamoyl)methoxy]-2-oxo-1,2-dihydroquinolin-6-yl}amino)pyrimidin-2-yl]piperidin-4-yl}methyl)piperidin-4-yl]-N-(2,6-dioxopiperidin-3-yl)-1,3-thiazole-4-carboxamide] | 50 to 70% | 10 to 50 nM
CNC(=O)COc1cc2cc(Nc3nc(N4CCC(CN5CCC(c6ccc(C(=O)NC7CCC(=O)NC7=O)o6)CC5)CC4)ncc3Cl)ccc2n(C)c1=O (stereo not shown) [compound 361, 5-[1-({1-[5-chloro-4-({1-methyl-3-[(methylcarbamoyl)methoxy]-2-oxo-1,2-dihydroquinolin-6-yl}amino)pyrimidin-2-yl]piperidin-4-yl}methyl)piperidin-4-yl]-N-(2,6-dioxopiperidin-3-yl)furan-2-carboxamide] | < 50% | 10 to 50 nM

Source: patent US12310975B2, “Modulators of BCL6 proteolysis and associated methods of use” (Arvinas Operations, Inc., priority 2019, dated 2025)
